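Five compound concentrations were applied to cells in 96-well plates for 48 hours; endpoints were derived by simple linear interpolation of the resulting dose-response curve. GI50: concentration for 50% inhibition of growth.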 Calls of active or inactive are those of the source. Cut-off read from the data, not from the text of the source: active = GI50 up to about 1.1 µM and inactive = higher.
Tests used:
Test in all cases: DTP human tumour cell line panel, 48 h
HOP-18 = test system: HOP-18
HCC 2998 = test system: HCC 2998
SN12C = test system: SN12C
Malme-3M = test system: Malme-3M
COLO 205 = test system: COLO 205
OVCAR-4 = test system: OVCAR-4
RXF 631 = test system: RXF 631
SK-MEL-2 = test system: SK-MEL-2
NCI-H460 = test system: NCI-H460
DMS-273 = test system: DMS-273
SNB-19 = test system: SNB-19
K562 = test system: K562
EKVX = test system: EKVX
NCI-H23 = test system: NCI-H23
SK-MEL-5 = test system: SK-MEL-5
786-0 = test system: 786-0
IGROV-1 = test system: IGROV-1
CAKI-1 = test system: CAKI-1
CCRF-CEM = test system: CCRF-CEM
A549 = test system: A549
U-251 = test system: U-251
XF498 = test system: XF498
SF-539 = test system: SF-539
KM12 = test system: KM12
OVCAR-8 = test system: OVCAR-8
KM-20L2 = test system: KM-20L2
NCI-H226 = test system: NCI-H226
HL-60 = test system: HL-60
HOP-62 = test system: HOP-62
UACC-257 = test system: UACC-257
M19-MEL = test system: M19-MEL
SK-MEL-28 = test system: SK-MEL-28
MOLT-4 = test system: MOLT-4
HCT-116 = test system: HCT-116
UO-31 = test system: UO-31
LXFL 529 = test system: LXFL 529
OVCAR-5 = test system: OVCAR-5
SW-620 = test system: SW-620
TK-10 = test system: TK-10
ACHN = test system: ACHN
OVCAR-3 = test system: OVCAR-3
NCI-H522 = test system: NCI-H522
SF-268 = test system: SF-268
SF-295 = test system: SF-295
DMS-114 = test system: DMS-114
RPMI-8226 = test system: RPMI-8226
SNB-75 = test system: SNB-75
M14 = test system: M14
HCT-15 = test system: HCT-15
HT-29 = test system: HT-29
SNB-78 = test system: SNB-78
UACC-62 = test system: UACC-62
HOP-92 = test system: HOP-92
SK-OV-3 = test system: SK-OV-3
A498 = test system: A498
DLD-1 = test system: DLD-1

COc1cccc(-n2c3nc(=O)n(C)c(=O)c-3nc3ccccc32)c1 was tested, and the GI50 (HOP-18) was 42.9 µM (inactive), the GI50 (HCC 2998) was 3.88 µM (inactive) and the GI50 (SN12C) was 13.7 µM (inactive). For the same compound, the GI50 (Malme-3M) was 14.3 µM (inactive), the GI50 (COLO 205) was 3.5 µM (inactive) and the GI50 (OVCAR-4) was 12.3 µM (inactive). The GI50 (RXF 631) was 19.1 µM (inactive), the GI50 (SK-MEL-2) was 19.6 µM (inactive) and the GI50 (NCI-H460) was 5.46 µM (inactive). For the same compound, the GI50 (DMS-273) was 6.95 µM (inactive), the GI50 (SNB-19) was 22 µM (inactive) and the GI50 (K562) was 24.2 µM (inactive). The GI50 (EKVX) was 29.8 µM (inactive), the GI50 (NCI-H23) was 15.7 µM (inactive) and the GI50 (SK-MEL-5) was 3.24 µM (inactive). The GI50 (786-0) was 24.3 µM (inactive), the GI50 (IGROV-1) was 18.7 µM (inactive) and the GI50 (CAKI-1) was 16.2 µM (inactive). The GI50 (CCRF-CEM) was 19 µM (inactive), the GI50 (A549) was 12.6 µM (inactive) and the GI50 (U-251) was 14.4 µM (inactive). The GI50 (XF498) was 16.3 µM (inactive), the GI50 (SF-539) was 12.4 µM (inactive) and the GI50 (KM12) was 27.1 µM (inactive). The GI50 (OVCAR-8) was 14.6 µM (inactive), the GI50 (KM-20L2) was 4.83 µM (inactive) and the GI50 (NCI-H226) was 17.7 µM (inactive). The GI50 (HL-60) was 6.01 µM (inactive), the GI50 (HOP-62) was 37.9 µM (inactive) and the GI50 (UACC-257) was 14.9 µM (inactive). For the same compound, the GI50 (M19-MEL) was 2.43 µM (inactive), the GI50 (SK-MEL-28) was 22.1 µM (inactive) and the GI50 (MOLT-4) was 16.3 µM (inactive). For the same compound, the GI50 (HCT-116) was 23.1 µM (inactive), the GI50 (UO-31) was 49.8 µM (inactive) and the GI50 (LXFL 529) was 21.6 µM (inactive). For the same compound, the GI50 (OVCAR-5) was 19.2 µM (inactive), the GI50 (SW-620) was 5.09 µM (inactive) and the GI50 (TK-10) was 45.6 µM (inactive). The GI50 (ACHN) was 3.18 µM (inactive), the GI50 (OVCAR-3) was 2.69 µM (inactive) and the GI50 (NCI-H522) was 29.3 µM (inactive). For the same compound, the GI50 (SF-268) was 16.7 µM (inactive), the GI50 (SF-295) was 13.2 µM (inactive) and the GI50 (DMS-114) was 5.11 µM (inactive). The GI50 (RPMI-8226) was 12.5 µM (inactive), the GI50 (SNB-75) was 19.6 µM (inactive) and the GI50 (M14) was 11.7 µM (inactive). For the same compound, the GI50 (HCT-15) was 13.4 µM, the GI50 (HT-29) was 4.55 µM (inactive) and the GI50 (SNB-78) was 29.1 µM (inactive). The GI50 (UACC-62) was 4.06 µM (inactive), the GI50 (HOP-92) was 26 µM (inactive) and the GI50 (SK-OV-3) was > 100 µM (inactive). The GI50 (A498) was 34.5 µM (inactive) and the GI50 (DLD-1) was 25.2 µM (inactive).

— ChEMBL document CHEMBL1201862, “PubChem BioAssay data set” (2004)
